According to PubChem BioAssay (NCI):
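Growth conditions: 96-well plates. Treatment: test compound, 48 hours, 5 concentrations. Analysis: linear interpolation between bracketing concentrations; unreached endpoints set to highest concentration. At the GI50, growth is halved. TGI: concentration producing complete growth inhibition.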

Tests used:
Experiment in all cases: NCI tumour cell line growth inhibition, 48 h
NCI-H23 lung = test system: NCI-H23 lung
SK-OV-3 ovarian = test system: SK-OV-3 ovarian
LOX IMVI melanoma = test system: LOX IMVI melanoma
SK-MEL-28 melanoma = test system: SK-MEL-28 melanoma
SN12C renal = test system: SN12C renal
OVCAR-8 ovarian = test system: OVCAR-8 ovarian
MOLT-4 leukemia = test system: MOLT-4 leukemia
RXF 393 renal = test system: RXF 393 renal
ACHN renal = test system: ACHN renal
UO-31 renal = test system: UO-31 renal

Row | SMILES | GI50 (NCI-H23 lung) | TGI (NCI-H23 lung) | GI50 (SK-OV-3 ovarian) | TGI (SK-OV-3 ovarian) | GI50 (LOX IMVI melanoma) | TGI (LOX IMVI melanoma) | GI50 (SK-MEL-28 melanoma) | TGI (SK-MEL-28 melanoma) | GI50 (SN12C renal) | TGI (SN12C renal) | GI50 (OVCAR-8 ovarian) | TGI (OVCAR-8 ovarian) | GI50 (MOLT-4 leukemia) | TGI (MOLT-4 leukemia) | GI50 (RXF 393 renal) | TGI (RXF 393 renal) | GI50 (ACHN renal) | TGI (ACHN renal) | GI50 (UO-31 renal) | TGI (UO-31 renal)
1 | OCc1ccc(-c2ccc(-c3ccc(CO)o3)o2)o1 | > 100 µM | > 100 µM | > 83.3 µM | > 100 µM | > 100 µM | > 100 µM | > 100 µM | > 100 µM | > 100 µM | > 100 µM | > 100 µM | > 100 µM | > 100 µM | > 100 µM | 26.5 µM | > 90 µM | 35.9 µM | > 100 µM | > 100 µM | > 100 µM
2 | N#Cc1ccccc1Sc1ccccc1N | – | > 100 µM | – | > 100 µM | – | > 100 µM | – | > 100 µM | – | > 100 µM | – | > 100 µM | – | > 100 µM | – | > 100 µM | – | > 100 µM | – | > 100 µM
3 | C#COc1cccc(Nc2ncnc3cc(NC(=O)[C@@H](C)Cl)ccc23)c1 | 17.2 µM | > 62.5 µM | 19.6 µM | > 62.5 µM | 4.88 µM | > 62.5 µM | 14 µM | > 62.5 µM | 16.8 µM | > 62.5 µM | 18.1 µM | > 62.5 µM | 4.29 µM | > 62.5 µM | 8.12 µM | 40.8 µM | 18.9 µM | > 62.5 µM | 17.8 µM | > 62.5 µM
4 | Nc1c(C(=O)Nc2ccccc2)sc2nc3c(cc12)C(=O)CCC3 | 0.833 µM | > 100 µM | 0.412 µM | > 100 µM | – | > 100 µM | 0.71 µM | > 100 µM | 6.2 µM | > 100 µM | 2.46 µM | > 100 µM | – | > 100 µM | 0.19 µM | 0.619 µM | 0.948 µM | > 100 µM | > 27.3 µM | > 100 µM
5 | CCOC(=O)C1C(c2ccc(Br)cc2)N(Cc2ccccc2)C(c2ccc(Br)cc2)C(C(=O)OC)S1(=O)=O (stereo not drawn) | – | > 100 µM | – | > 100 µM | – | > 100 µM | – | > 100 µM | – | > 100 µM | – | 84.6 µM | – | > 100 µM | – | > 100 µM | – | > 100 µM | – | > 100 µM
6 | NC1CCC2(O)c3ccccc3C2C1 (stereo not drawn) | – | > 100 µM | – | > 100 µM | – | > 100 µM | – | > 100 µM | – | > 100 µM | – | > 100 µM | – | > 100 µM | – | > 100 µM | – | > 100 µM | – | > 100 µM
7 | O=C(Nc1ccc(-n2cc(-c3ccncc3)c(-c3ccc(Cl)c(O)c3)n2)cc1)c1cc(C(F)(F)F)cc(C(F)(F)F)c1 | 6.09 µM | 29.5 µM | 2.01 µM | 6.98 µM | 2.54 µM | 10.4 µM | 4.88 µM | 20 µM | 7.14 µM | 89.9 µM | 6.54 µM | 34.8 µM | 8.87 µM | > 100 µM | 1.32 µM | 3.1 µM | 6.47 µM | 31.1 µM | 2.8 µM | 13.5 µM
8 | CN(C)CCCOc1ccc(NC2=C(Cl)C(=O)C(Nc3ccc(OCCCN(C)C)cc3)=C(Cl)C2=O)cc1 | 0.292 µM | 1.02 µM | 1.82 µM | 3.34 µM | 0.422 µM | 0.902 µM | 1.74 µM | 3.16 µM | 0.548 µM | 1.05 µM | 0.446 µM | 1.04 µM | 0.325 µM | 2.38 µM | 1.19 µM | 2.45 µM | 1.66 µM | 3.02 µM | 1.1 µM | 2.44 µM
9 | CC(=O)Nc1cccc(C#Cc2cncnc2Nc2ccc(OCc3cccc(F)c3)c(Cl)c2)c1 | 10.6 µM | > 25 µM | 6.14 µM | > 25 µM | 8.12 µM | > 25 µM | 17.1 µM | > 25 µM | 10.2 µM | > 25 µM | 6.35 µM | 24.9 µM | 6.82 µM | > 25 µM | 0.753 µM | > 15.1 µM | 6.09 µM | > 25 µM | 3.55 µM | > 25 µM
10 | OC1=CN=C(c2ccccc2)Oc2ccccc21 | – | > 100 µM | – | > 100 µM | – | > 100 µM | – | > 100 µM | – | > 100 µM | – | > 100 µM | – | > 100 µM | – | > 100 µM | – | > 100 µM | – | > 100 µM
